Source: US20130210809A1, “NOVEL 2-AMINO-4-PYRAZOLYL-THIAZOLE DERIVATIVES AND THEIR USE AS ALLOSTERIC MODULATORS OF METABOTROPIC GLUTAMATE RECEPTORS” (priority 2010, published 2013)
pEC50: −log10 of the molar value.

Biological target: T1, recombinant human mGluR4a receptors (Homo sapiens, UniProt Q14833)
T1 construct: expressed in transfected cells
Test: mGluR4 assay on HEK-expressing human mGluR4 (fluorescent cell based Ca2+ mobilization assay, FLIPR)
Settings: HEK-293 cells expressing hmGluR4; enhancement of EC25 glutamate response; mean of at least three independent experiments in duplicate; read-out: Ca^2+ Flux (mean EC50)
Description: mGluR4 Assay on HEK-Expressing Human mGluR4
The compounds of the present invention are positive allosteric modulators of mGluR4 receptor. Their activity was examined on recombinant human mGluR4a receptors by detecting changes in intracellular Ca^2+ concentration, using the fluorescent Ca^2+-sensitive dye Fluo4-(AM) and a Fluorometric Imaging Plate Reader (FLIPR, Molecular Devices, Sunnyvale, Calif.).
The cDNA encoding the human metabotropic glutamate receptor (hmGluR4), (accession number NM_000841.1, NCBI Nucleotide database browser), was subcloned into an expression vector containing also the Hygromycin resistance gene. In parallel, the cDNA encoding a G protein allowing redirection of the activation signal to intracellular calcium flux was subcloned into a different expression vector containing also the Puromycin resistance gene. Transfection of both these vectors into HEK293 cells with PolyFect reagent (Qiagen) according to supplier's protocol, and hygromycin and puromycin treatment allowed selection of antibiotic resistant cells which had integrated stably one or more copies of the plasmids. Positive cellular clones expressing hmGluR4 were identified in a functional assay measuring changes in calcium flux in response to glutamate or selective known mGluR4 orthosteric agonists and antagonists. HEK-293 cells expressing hmGluR4 were maintained in media containing DMEM, dialyzed Fetal Calf Serum (10%), Glutamax™ (2 mM), Penicillin (100 units/mL), Streptomycin (100 μg/mL), Geneticin (100 μg/mL) and Hygromycin-B (40 μg/mL) and Puromycin (1 μg/mL) at 37° C./5% CO2.
Human mGluR4 HEK-293 cells were plated out 24 hours prior to FLIPR^384 assay in black-walled, clear-bottomed, poly-L-ornithine-coated 384-well plates at a density of 25,000 cells/well in a glutamine/glutamate free DMEM medium containing foetal bovine serum (10%), penicillin (100 units/mL) and streptomycin (100 μg/mL) at 37° C./5% CO2.
On the day of the assay, the medium was aspirated and the cells were loaded with a 3 μM solution of Fluo4-AM (LuBioScience, Lucerne, Switzerland) in 0.03% pluronic acid. After 1 hour at 37° C./5% CO2, the non incorporated dye was removed by washing cell plate with the assay buffer and the cells were left in the dark at it for six hours before testing. All assays were performed in a pH 7.4 buffered-solution containing 20 mM HEPES, 143 mM NaCl, 6 mM KCl, 1 mM MgSO4, 1 mM CaCl2, 0.125 mM sulfapyrazone and 0.1% glucose.
After 10 s of basal fluorescence recording, various concentrations of the compounds of the invention were added to the cells. Changes in fluorescence levels were first monitored for 180 s in order to detect any agonist activity of the compounds. Then the cells were stimulated by an EC25 glutamate concentration for an additional 110 s in order to measure enhancing activities of the compounds of the invention. EC25 glutamate concentration is the concentration giving 25% of the maximal glutamate response.
The concentration-response curves of representative compounds of the present invention were generated using the Prism GraphPad software (Graph Pad Inc, San Diego, USA). The curves were fitted to a four-parameter logistic equation:
(Y=Bottom+(Top−Bottom)/(1+10̂((Log EC50-X)*Hill Slope)
allowing the determination of EC50 values.
The Table 3 below represents the mean EC50 obtained from at least three independent experiments of selected molecules performed in duplicate.

T1 sequence (Q14833 33-912): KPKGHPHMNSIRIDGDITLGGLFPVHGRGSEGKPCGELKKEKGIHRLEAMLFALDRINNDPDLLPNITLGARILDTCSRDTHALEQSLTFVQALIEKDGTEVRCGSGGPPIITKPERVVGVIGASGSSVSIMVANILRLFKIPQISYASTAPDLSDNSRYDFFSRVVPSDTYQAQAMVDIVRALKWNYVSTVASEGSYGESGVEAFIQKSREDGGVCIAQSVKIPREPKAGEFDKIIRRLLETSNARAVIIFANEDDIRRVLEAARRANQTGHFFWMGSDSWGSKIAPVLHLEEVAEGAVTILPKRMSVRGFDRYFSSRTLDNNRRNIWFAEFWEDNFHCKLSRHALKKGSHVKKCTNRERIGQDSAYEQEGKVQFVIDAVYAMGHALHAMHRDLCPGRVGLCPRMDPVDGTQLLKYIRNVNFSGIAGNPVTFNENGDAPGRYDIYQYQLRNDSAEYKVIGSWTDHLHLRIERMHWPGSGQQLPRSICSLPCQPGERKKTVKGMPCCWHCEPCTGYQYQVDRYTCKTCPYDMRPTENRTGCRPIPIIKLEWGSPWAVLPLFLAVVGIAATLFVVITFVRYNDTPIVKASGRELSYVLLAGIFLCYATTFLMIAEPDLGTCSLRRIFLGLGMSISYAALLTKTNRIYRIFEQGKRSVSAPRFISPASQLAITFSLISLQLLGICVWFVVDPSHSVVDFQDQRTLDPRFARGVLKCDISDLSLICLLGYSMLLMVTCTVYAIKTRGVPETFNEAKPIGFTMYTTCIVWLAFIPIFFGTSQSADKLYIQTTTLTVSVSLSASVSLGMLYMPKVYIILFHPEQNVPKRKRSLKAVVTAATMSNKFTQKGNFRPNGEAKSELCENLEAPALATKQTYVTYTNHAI

Compound | pEC50
CNC(=O)c1[nH]ncc1-c1csc(Nc2nccc(C)n2)n1 [Compound 1-32, N-Methyl-4-(2-(4-methylpyrimidin-2-ylamino)thiazol-4-yl)-1H-pyrazole-5-carboxamide] | 5.00 to 6.00
Cc1ccnc(Nc2nc(-c3c[nH]nc3-c3cccc(C(N)=O)c3)cs2)n1 [Compound 1-22, 3-(4-(2-(4-Methylpyrimidin-2-ylamino)thiazol-4-yl)-1H-pyrazol-3-yl)benzamide] | 5.00 to 6.00
Cc1cccc(-c2n[nH]cc2-c2csc(Nc3nccc(C)n3)n2)c1 [Compound 1-12, N-(4-Methylpyrimidin-2-yl)-4-(3-m-tolyl-1H-pyrazol-4-yl)thiazol-2-amine] | 5.00 to 6.00
Cc1ccnc(Nc2nc(-c3c[nH]nc3-c3ccc(C4CC4)cc3)cs2)n1 [Compound 1-17, 4-(3-(4-Cyclopropylphenyl)-1H-pyrazol-4-yl)-N-(4-methylpyrimidin-2-yl)thiazol-2-amine] | 5.00 to 6.00
Cc1ccnc(Nc2nc(-c3c[nH]nc3-c3cncc(Cl)c3)cs2)n1 [Compound 1-10, 4-(3-(5-Chloropyridin-3-yl)-1H-pyrazol-4-yl)-N-(4-methylpyrimidin-2-yl)thiazol-2-amine] | 5.00 to 6.00
CCc1ccnc(Nc2nc(-c3c[nH]nc3COC)cs2)n1 [Compound 1-38, N-(4-Ethylpyrimidin-2-yl)-4-(3-(methoxymethyl)-1H-pyrazol-4-yl)thiazol-2-amine] | 5.00 to 6.00
COCc1n[nH]cc1-c1csc(Nc2ncc(F)cn2)n1 [Compound 1-37, N-(5-Fluoropyrimidin-2-yl)-4-(3-(methoxymethyl)-1H-pyrazol-4-yl)thiazol-2-amine] | 5.00 to 6.00
Cc1ccnc(Nc2nc(-c3c[nH]nc3-c3cccc4c3CNC4=O)cs2)n1 [Compound 1-7, 4-(4-(2-(4-Methylpyrimidin-2-ylamino)thiazol-4-yl)-1H-pyrazol-3-yl)isoindolin-1-one] | 5.00 to 6.00
Cc1ccnc(Nc2nc(-c3c[nH]nc3-c3ccccc3C)cs2)n1 [Compound 1-19, N-(4-Methylpyrimidin-2-yl)-4-(3-o-tolyl-1H-pyrazol-4-yl)thiazol-2-amine] | 5.00 to 6.00
CC(=O)N1CCC=C(c2n[nH]cc2-c2csc(Nc3nccc(C)n3)n2)C1 [Compound 1-33, 1-(3-(4-(2-(4-Methylpyrimidin-2-ylamino)thiazol-4-yl)-1H-pyrazol-3-yl)-5,6-dihydropyridin-1(2H)-yl)ethanone] | 5.00 to 6.00
Cc1ccnc(Nc2nc(-c3c[nH]nc3-c3cncc(C(C)(C)O)c3)cs2)n1 [Compound 1-14, 2-(5-(4-(2-(4-Methylpyrimidin-2-ylamino)thiazol-4-yl)-1H-pyrazol-3-yl)pyridin-3-yl)propan-2-ol] | 5.00 to 6.00
Cc1ccnc(Nc2nc(-c3c[nH]nc3-c3cccc(N4CCS(=O)(=O)CC4)c3)cs2)n1 [Compound 1-2, N-(4-Methylpyrimidin-2-yl)-4-(3-(3-(1,1-dioxido-4-thiomorpholinyl)phenyl)-1H-pyrazol-4-yl)thiazol-2-amine] | 5.00 to 6.00
Cc1ccnc(Nc2nc(-c3c[nH]nc3-c3ccncc3)cs2)n1 [Compound 1-18, N-(4-Methylpyrimidin-2-yl)-4-(3-(pyridin-4-yl)-1H-pyrazol-4-yl)thiazol-2-amine] | 5.00 to 6.00
Cc1ccnc(Nc2nc(-c3c[nH]nc3-c3ccc(F)cc3F)cs2)n1 [Compound 1-24, 4-(3-(2,4-Difluorophenyl)-1H-pyrazol-4-yl)-N-(4-methylpyrimidin-2-yl)thiazol-2-amine] | 5.00 to 6.00
Cc1ccnc(Nc2nc(-c3c[nH]nc3-c3cccc(CN4CCOCC4)c3)cs2)n1 [Compound 1-9, N-(4-Methylpyrimidin-2-yl)-4-(3-(3-(morpholinomethyl)phenyl)-1H-pyrazol-4-yl)thiazol-2-amine] | 5.00 to 6.00
c1ccc(Nc2nc(-c3c[nH]nc3N3CCOCC3)cs2)nc1 [Compound 1-13, 4-(3-Morpholino-1H-pyrazol-4-yl)-N-(pyridin-2-yl)thiazol-2-amine] | 5.00 to 6.00
Cc1ccnc(Nc2nc(-c3c[nH]nc3-c3ccccc3Cl)cs2)n1 [Compound 1-21, 4-(3-(2-Chlorophenyl)-1H-pyrazol-4-yl)-N-(4-methylpyrimidin-2-yl)thiazol-2-amine] | 6.00 to 7.00
CC(=O)N1CC=C(c2n[nH]cc2-c2csc(Nc3nccc(C)n3)n2)CC1 [Compound 1-40, 1-(4-(4-(2-(4-Methylpyrimidin-2-ylamino)thiazol-4-yl)-1H-pyrazol-3-yl)-5,6-dihydropyridin-1(2H)-yl)ethanone] | 5.00 to 6.00
Cc1ccnc(Nc2nc(-c3c[nH]nc3-c3ccc(Cl)cc3)cs2)n1 [Compound 1-16, 4-(3-(4-Chlorophenyl)-1H-pyrazol-4-yl)-N-(4-methylpyrimidin-2-yl)thiazol-2-amine] | 6.00 to 7.00
Cc1ccnc(Nc2nc(-c3c[nH]nc3-c3ccccc3OC(F)(F)F)cs2)n1 [Compound 1-20, N-(4-Methylpyrimidin-2-yl)-4-(3-(2-(trifluoromethoxy)phenyl)-1H-pyrazol-4-yl)thiazol-2-amine] | 5.00 to 6.00

The remaining lines, values ahead:

pEC50 | Compound
6.00 to 7.00 | Cc1ccnc(Nc2nc(-c3c[nH]nc3-c3cccc(N4CCC(O)C4)c3)cs2)n1 (centres unmarked) [Compound 1-42, 1-(3-(4-(2-(4-Methylpyrimidin-2-ylamino)thiazol-4-yl)-1H-pyrazol-3-yl)phenyl)pyrrolidin-3-ol]
6.00 to 7.00 | N#Cc1sc(Nc2nccnn2)nc1-c1cn[nH]c1 [Compound 1-45, 2-(1,2,4-Triazin-3-ylamino)-4-(1H-pyrazol-4-yl)thiazole-5-carbonitrile]
> 7.00 | Cc1ccnc(Nc2nc(-c3cn[nH]c3-c3cccc(C#N)c3F)cs2)n1 [Compound 1-35, 2-Fluoro-3-(4-(2-(4-methylpyrimidin-2-ylamino)thiazol-4-yl)-1H-pyrazol-5-yl)benzonitrile]
6.00 to 7.00 | COC(C)c1[nH]ncc1-c1csc(Nc2nccc(C)n2)n1 (centres unmarked) [Compound 1-29, 4-(5-(1-Methoxyethyl)-1H-pyrazol-4-yl)-N-(4-methylpyrimidin-2-yl)thiazol-2-amine]
6.00 to 7.00 | Cc1ccnc(Nc2nc(-c3c[nH]nc3-c3cccc(CCCO)c3)cs2)n1 [Compound 1-15, 3-(3-(4-(2-(4-Methylpyrimidin-2-ylamino)thiazol-4-yl)-1H-pyrazol-3-yl)phenyl)propan-1-ol]
> 7.00 | Cc1ccnc(Nc2nc(-c3c[nH]nc3-c3cccc(C#N)c3)cs2)n1 [Compound 1-4, 3-(4-(2-(4-Methylpyrimidin-2-ylamino)thiazol-4-yl)-1H-pyrazol-3-yl)benzonitrile]
6.00 to 7.00 | COC(=O)N1CC=C(c2n[nH]cc2-c2csc(Nc3nccc(C)n3)n2)C1 [Compound 1-39, Methyl 3-(4-(2-(4-methylpyrimidin-2-ylamino)thiazol-4-yl)-1H-pyrazol-3-yl)-2,5-dihydro-1H-pyrrole-1-carboxylate]
> 7.00 | COc1ccc(F)cc1-c1n[nH]cc1-c1csc(Nc2ncccn2)n1 [Compound 1-31, 4-(3-(5-Fluoro-2-methoxyphenyl)-1H-pyrazol-4-yl)-N-(pyrimidin-2-yl)thiazol-2-amine]
6.00 to 7.00 | Cc1ccnc(Nc2nc(-c3cn[nH]c3-c3cc(C#N)ccc3F)cs2)n1 [Compound 1-34, 4-Fluoro-3-(4-(2-(4-methylpyrimidin-2-ylamino)thiazol-4-yl)-1H-pyrazol-5-yl)benzonitrile]
> 7.00 | Cc1ccnc(Nc2nc(-c3c[nH]nc3-c3ccccc3F)cs2)n1 [Compound 1-3, 4-(3-(2-Fluorophenyl)-1H-pyrazol-4-yl)-N-(4-methylpyrimidin-2-yl)thiazol-2-amine]
> 7.00 | Cc1nc(Nc2nc(-c3cn[nH]c3)c(C#N)s2)ns1 [Compound 1-44, 2-(5-Methyl-1,2,4-thiadiazol-3-ylamino)-4-(1H-pyrazol-4-yl)thiazole-5-carbonitrile]
> 7.00 | CCOc1sc(Nc2nccc(C)n2)nc1-c1cn[nH]c1 [Compound 1-47, 5-Ethoxy-N-(4-methylpyrimidin-2-yl)-4-(1H-pyrazol-4-yl)thiazol-2-amine]
